Results on one compound are retold here after PMC12015759, “A humanized Gs-coupled DREADD for circuit and behavior modulation” (Frontiers in Cellular Neuroscience, 2025).

Structures are written as SMILES.

One assay has as its target T1, rM3Ds (Rattus norvegicus, UniProt P08483, A177S/A238G/A489L/DEL261-437/DEL441-478/E258S/I253V/I483M/INS256[…]/K178L/K182A/K255R/K484R/K486H/L173F/L482A/M480V/R171S/R176Q/R179M/S481M/T174R/T181R/T257A/Y148C).
T1 construct: host or cells: HEK293T
T1 sequence (P08483 with tags, fused parts or gaps Y148C/R171S/L173F/T174R/R176Q/A177S/K178L/R179M/T181R/K182A/A238G/I253V/K255R/INS256[…]/T257A/E258S/DEL261-437/DEL441-478/M480V/S481M/L482A/I483M/K484R/K486H/A489L): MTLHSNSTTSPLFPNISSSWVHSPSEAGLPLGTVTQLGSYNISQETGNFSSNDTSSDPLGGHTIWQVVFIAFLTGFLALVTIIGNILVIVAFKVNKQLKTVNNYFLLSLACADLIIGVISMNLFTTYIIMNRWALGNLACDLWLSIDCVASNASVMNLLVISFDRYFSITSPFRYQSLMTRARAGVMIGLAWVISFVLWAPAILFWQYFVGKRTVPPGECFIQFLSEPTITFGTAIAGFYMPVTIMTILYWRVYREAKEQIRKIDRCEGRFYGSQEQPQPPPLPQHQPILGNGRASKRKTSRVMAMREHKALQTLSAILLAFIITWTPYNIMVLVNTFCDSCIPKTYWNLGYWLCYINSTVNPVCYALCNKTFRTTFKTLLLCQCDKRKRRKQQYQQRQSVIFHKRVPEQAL
The experiment in a line: cAMP assay (CRE-luciferase reporter) in HEK293T cells expressing rM3Ds. The format is cell-based. The settings on record: CNO on rM3Ds, HEK293T, 6 h, firefly/renilla luciferase ratio.

In a further assay the test system is mice. In words: Open field test after unilateral AAV8R12-G88P7-hM3Ds-2A-EYFP injection into the SNr. In kind it is in vivo, mouse. To be noted: CNO 0.3 mg/kg intraperitoneal vs saline, unilateral hM3Ds in D1-MSNs. The method, then:
(§1) Animals were anesthetized via intraperitoneal injection of pentobarbital sodium (Sigma) and placed into a stereotactic frame (RWD Instruments). An incision was made to expose the skull and locate the site above the SNr (from bregma: AP –3.4 mm, ML 1.3 mm, DV –4.8 mm). A hole in the skull was drilled above the SNr using an electrodrill (RWD Instruments). The AAV8R12-G88P7-hM3Ds-2A-EYFP vector (200 nL volume) was injected using a 10 μL 33-Gauge Hamilton syringe at a rate of 20 nL/min. The syringe was withdrawn 10 min after finishing injection. Behavioral experiments are performed at least 3 weeks after virus injection.
Mice were tested in an open field box arena with length, width and height of 50 × 50 × 50 cm. The animals underwent 3 days of habituation to the environment and experimenter and 1 day of habituation to the test apparatus. On the test day, the animals were injected with saline or CNO (0.3 mg/kg). The animals were placed into the test box 30 min after injection and video was recorded for 10 min. The number of rotations, distance traveled, and time spent immobile were then quantified using Anymaze software and the video recordings.

Assay [1] deals with PD mice. In words: Open field test in 6-OHDA PD mice with bilateral AAV8R12-G88P7-hM3Ds-2A-EYFP. In kind it is in vivo, mouse. The settings on record: CNO 0.3 mg/kg. As to the method:
as §1
A PD mouse model was generated using 6-OHDA. Desipramine (Sigma) was administrated (25 mg/kg) via intraperitoneal injection 30 min before a 6-OHDA injection. The stereotactic injection procedure was identical to the AAV injection described above. A volume of 800 nL 6-OHDA (5 mg/mL) was injected into each side of striatum (from bregma: AP 0.5 mm, ML ±1.5 mm, DV –3.2 mm) at a rate of 100 nL/min. […]
Mice were tested in an open field box arena with length, width and height of 50 × 50 × 50 cm. […] The animals were placed into the test box 30 min after injection and video was recorded for 10 min. The number of rotations, distance traveled, and time spent immobile were then quantified using Anymaze software and the video recordings.

For assay [2], the system named is PD mice. The experiment in a line: Rotarod test in 6-OHDA PD mice with bilateral AAV8R12-G88P7-hM3Ds-2A-EYFP. In kind it is in vivo, mouse. The settings on record: CNO treatment. As to the method: as §1
A PD mouse model was generated using 6-OHDA. Desipramine (Sigma) was administrated (25 mg/kg) via intraperitoneal injection 30 min before a 6-OHDA injection. The stereotactic injection procedure was identical to the AAV injection described above. A volume of 800 nL 6-OHDA (5 mg/mL) was injected into each side of striatum (from bregma: AP 0.5 mm, ML ±1.5 mm, DV –3.2 mm) at a rate of 100 nL/min. One week after 6-OHDA lesions were generated, AAV injections were administered, and behavioral tests were conducted 3 weeks after AAV injections.
After 3 days of habituation to the environment and operator, the mice were placed on a suspended rod apparatus (Xinruan) and trained at speeds of 10, 20, 30 and 40 rpm/min for 2 days. […]

For a further assay, the target named is T2, hM3Ds (Homo sapiens, UniProt P20309, A178S/A239G/A490L/DEL258-409/DEL413-482/I254V/INS485[…]/K179L/K183A/K256R/K487Q/L174F/L483Q/R172S/R177Q/R180L/T175R/T182R/Y149C/Y255F).
T2 sequence (P20309 with tags, fused parts or gaps Y149C/R172S/L174F/T175R/R177Q/A178S/K179L/R180L/T182R/K183A/A239G/I254V/Y255F/K256R/DEL258-409/DEL413-482/L483Q/INS485[…]/K487Q/A490L): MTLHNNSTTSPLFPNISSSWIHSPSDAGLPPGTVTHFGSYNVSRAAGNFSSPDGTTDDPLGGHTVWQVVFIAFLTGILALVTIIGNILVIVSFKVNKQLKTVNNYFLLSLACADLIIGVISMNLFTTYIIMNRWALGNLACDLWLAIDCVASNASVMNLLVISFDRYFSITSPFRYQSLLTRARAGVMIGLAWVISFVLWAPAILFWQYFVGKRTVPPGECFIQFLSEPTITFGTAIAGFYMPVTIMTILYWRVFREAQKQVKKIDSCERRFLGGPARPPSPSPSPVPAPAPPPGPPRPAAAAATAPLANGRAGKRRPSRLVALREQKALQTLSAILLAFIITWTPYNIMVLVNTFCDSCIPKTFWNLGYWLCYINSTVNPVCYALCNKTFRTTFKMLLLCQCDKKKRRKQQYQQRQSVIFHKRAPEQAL
The experiment in a line: Ca2+ imaging (GCaMP6s) in hM3Ds-transfected HEK293T cells. In kind it is cell-based. Further details: hM3Ds was subcloned into pAAV-CMV-EYFP to replace EYFP; expressed in transfected cells; host or cells: HEK293T. The settings on record: CNO 10 μM, 10 min. As to the method: As for the Ca^2+ imaging assay, HEK293T cells (ATCC) were seeded in 24-well plate with DMEM containing 10% fetal bovine serum. Upon reaching ~80% confluency, cells were cotransfected with pAAV-CAG-GCaMP6s (0.1 μg), and pAAV-CMV-hM3Ds or pAAV-CMV-hM3Dq (0.1 μg).
48 h after transfection, the medium in each well was replaced with 400 μL CNO (10 μM) solution, or with 400 μL vehicle (medium only). […] Cell fluorescence were imaged under microscopy and quantified using ImageJ.

As to `C[N+]1([O-])CCN(C2=Nc3cc(Cl)ccc3Nc3ccccc32)CC1` [CNO, clozapine N-oxide], on rM3Ds, the half-maximal effective concentration (EC50) turned out to be 2.39 ± 0.25 nM. In addition, in the assay with mice, the contralateral rotation result is “more contralateral rotation” and the total distance traveled entry is recorded as “no difference”. For the same compound, in the assay with PD mice [1], the mean distance traveled entry is “reversed” and the time spent immobile result is listed as “reversed”. The “latency to fall (rotarod)” value with PD mice [2] is on record as “partial recovery of motor skills”. Moreover, on hM3Ds, the calcium rise entry is reported as “did not induce detectable levels of calcium rise”.
